Test results published in patent US8680133B2, “Alkyl indole-3-carbinol-derived antitumor agents” (The Ohio State University Research Foundation, priority 2009, dated 2014).
Entries after “also recorded” stand apart in the source; their conditions may differ.

Experiments:
[1] = tested on: SR; assay: NCI60 screening, Leukemia, SR; assay type: cell-based, human
[2] = tested on: NCI-H23; assay: NCI60 screening, Non-Small Cell Lung Cancer, NCI-H23; assay type: cell-based, human
[3] = tested on: NCI-H322M; assay: NCI60 screening, Non-Small Cell Lung Cancer, NCI-H322M; assay type: cell-based, human
[4] = tested on: HCC-2998; assay: NCI60 screening, Colon Cancer, HCC-2998; assay type: cell-based, human
[5] = tested on: HCT-15; assay: NCI60 screening, Colon Cancer, HCT-15; assay type: cell-based, human
[6] = tested on: KM12; assay: NCI60 screening, Colon Cancer, KM12; assay type: cell-based, human
[7] = tested on: SF-539; assay: NCI60 screening, CNS Cancer, SF-539; assay type: cell-based, human
[8] = tested on: SNB-19; assay: NCI60 screening, CNS Cancer, SNB-19; assay type: cell-based, human
[9] = tested on: SNB-75; assay: NCI60 screening, CNS Cancer, SNB-75; assay type: cell-based, human
[10] = tested on: U251; assay: NCI60 screening, CNS Cancer, U251; assay type: cell-based, human
[11] = tested on: 786-0; assay: NCI60 screening, Renal Cancer, 786-0; assay type: cell-based, human
[12] = tested on: A498; assay: NCI60 screening, Renal Cancer, A498; assay type: cell-based, human
[13] = tested on: TK-10; assay: NCI60 screening, Renal Cancer, TK-10; assay type: cell-based, human
[14] = tested on: MCF7; assay: NCI60 screening, Breast Cancer, MCF7; assay type: cell-based, human
[15] = tested on: BT-549; assay: NCI60 screening, Breast Cancer, BT-549; assay type: cell-based, human
[16] = tested on: PC-3 prostate cancer cells; assay: MTT assay of PC-3 cell viability; assay type: cell-based; settings: MTT assay, 24, 48 and 72 h; comparison in words
Protocol: Each data point represents means±S.D. (n=6). The activity of OSU-A9M versus its parent compound A9 ([1-(3′-nitro-4′-chlorobenzenesulfonyl)-1H-indol-3-yl]-methanol) and its fluorinated counterpart OSU-A9F ([1-(4-Chloro-3-nitro-benzenesulfonyl)-5-fluoro-1H-indol-3-yl])-methanol in suppressing the cell viability of PC-3 prostate cancer cells was compared using the MTT [3-(4,5-dimethylthiazol-2-yl)-2,5-diphenyl-2H-tetrazolium bromide] assay. Cancer cells and PrECs were grown in 5% FBS-supplemented RPMI 1640 medium or 5% FBS-supplemented prostate epithelial growth medium, respectively, in 96-well, flat-bottomed plates for 24 h, and then exposed to various concentrations of test agents in the same medium for the indicated time intervals. Controls received DMSO vehicle at a concentration equal to that in drug-treated cells. At the end of the treatment, the medium was removed, replaced by 200 μL of 0.5 mg/mL of MTT in the same medium, and cells were incubated in the CO2 incubator at 37° C. for 2 h. Supernatants were removed from the wells, and the reduced MTT dye was solubilized in 200 μL/well DMSO. Absorbance at 570 nm was determined on a plate reader.

[17] = Homo sapiens, read-out: LC50 (the source's name)

SMILES: Cc1ccc2c(c1)c(CO)cn2S(=O)(=O)c1ccc(Cl)c([N+](=O)[O-])c1 [OSU-A9M, [1-(4-chloro-3-nitro-benzenesulfonyl)-5-methyl-1H-indol-3-yl]-methanol]
- TGI [1]: 2.47E−6
- GI50 ([1]; Homo sapiens): 0.371 µM
- CC50 [1, 17]: > 100 µM
- Percent Growth ([1]; Log10 Concentration −4.0): −46%
- Percent Growth ([1]; Log10 Concentration −5.0): −25%
- Percent Growth ([1]; Log10 Concentration −6.0): 16%
- Percent Growth ([1]; Log10 Concentration −7.0): 94%
- Percent Growth ([1]; Log10 Concentration −8.0): 85%
- TGI [2]: 2.89E−6
- GI50 ([2]; Homo sapiens): 1.53 µM
- CC50 [2, 17]: 5.46 µM
- Percent Growth ([2]; Log10 Concentration −4.0): −96%
- Percent Growth ([2]; Log10 Concentration −5.0): −97%
- Percent Growth ([2]; Log10 Concentration −6.0): 83%
- Percent Growth ([2]; Log10 Concentration −7.0): 90%
- Percent Growth ([2]; Log10 Concentration −8.0): 92%
- TGI [3]: 3.10E−6
- GI50 ([3]; Homo sapiens): 1.68 µM
- LC50 ([3]; Homo sapiens): 5.71 µM
- Percent Growth ([3]; Log10 Concentration −4.0): −93%
- Percent Growth ([3]; Log10 Concentration −5.0): −96%
- Percent Growth ([3]; Log10 Concentration −6.0): 93%
- Percent Growth ([3]; Log10 Concentration −7.0): 89%
- Percent Growth ([3]; Log10 Concentration −8.0): 91%
- TGI [4]: 2.73E−6
- GI50 ([4]; Homo sapiens): 1.42 µM
- CC50 [4, 17]: 5.23 µM
- Percent Growth ([4]; Log10 Concentration −4.0): −99%
- Percent Growth ([4]; Log10 Concentration −5.0): −100%
- Percent Growth ([4]; Log10 Concentration −6.0): 77%
- Percent Growth ([4]; Log10 Concentration −7.0): 91%
- Percent Growth ([4]; Log10 Concentration −8.0): 96%
- TGI [5]: 2.82E−6
- GI50 ([5]; Homo sapiens): 1.5 µM
- CC50 [5, 17]: 5.31 µM
- Percent Growth ([5]; Log10 Concentration −4.0): −100%
- Percent Growth ([5]; Log10 Concentration −5.0): −100%
- Percent Growth ([5]; Log10 Concentration −6.0): 82%
- Percent Growth ([5]; Log10 Concentration −7.0): 94%
- Percent Growth ([5]; Log10 Concentration −8.0): 92%
- TGI [6]: 2.97E−6
- GI50 ([6]; Homo sapiens): 1.62 µM
- CC50 [6, 17]: 5.45 µM
- Percent Growth ([6]; Log10 Concentration −4.0): −100%
- Percent Growth ([6]; Log10 Concentration −5.0): −100%
- Percent Growth ([6]; Log10 Concentration −6.0): 90%
- Percent Growth ([6]; Log10 Concentration −7.0): 97%
- Percent Growth ([6]; Log10 Concentration −8.0): 105%
- TGI [7]: 2.94E−6
- GI50 ([7]; Homo sapiens): 1.6 µM
- CC50 [7, 17]: 5.42 µM
- Percent Growth ([7]; Log10 Concentration −4.0): −100%
- Percent Growth ([7]; Log10 Concentration −5.0): −100%
- Percent Growth ([7]; Log10 Concentration −6.0): 88%
- Percent Growth ([7]; Log10 Concentration −7.0): 94%
- Percent Growth ([7]; Log10 Concentration −8.0): 93%
- TGI [8]: 2.97E−6
- GI50 ([8]; Homo sapiens): 1.62 µM
- CC50 [8, 17]: 5.45 µM
- Percent Growth ([8]; Log10 Concentration −4.0): −100%
- Percent Growth ([8]; Log10 Concentration −5.0): −100%
- Percent Growth ([8]; Log10 Concentration −6.0): 90%
- Percent Growth ([8]; Log10 Concentration −7.0): 86%
- Percent Growth ([8]; Log10 Concentration −8.0): 88%
- TGI [9]: 2.70E−6
- GI50 ([9]; Homo sapiens): 1.4 µM
- LC50 ([9]; Homo sapiens): 5.19 µM
- Percent Growth ([9]; Log10 Concentration −4.0): −100%
- Percent Growth ([9]; Log10 Concentration −5.0): −100%
- Percent Growth ([9]; Log10 Concentration −6.0): 76%
- Percent Growth ([9]; Log10 Concentration −7.0): 83%
- Percent Growth ([9]; Log10 Concentration −8.0): 108%
- TGI [10]: 2.91E−6
- GI50 ([10]; Homo sapiens, U-251): 1.57 µM
- CC50 ([10]; Homo sapiens, U-251, read-out: LC50 (the source's name)): 5.4 µM
- Percent Growth ([10]; Log10 Concentration −4.0): −100%
- Percent Growth ([10]; Log10 Concentration −5.0): −100%
- Percent Growth ([10]; Log10 Concentration −6.0): 87%
- Percent Growth ([10]; Log10 Concentration −7.0): 87%
- Percent Growth ([10]; Log10 Concentration −8.0): 90%
- TGI [11]: 3.22E−6
- GI50 ([11]; Homo sapiens): 1.78 µM
- CC50 [11, 17]: 5.83 µM
- Percent Growth ([11]; Log10 Concentration −4.0): −100%
- Percent Growth ([11]; Log10 Concentration −5.0): −95%
- Percent Growth ([11]; Log10 Concentration −6.0): 98%
- Percent Growth ([11]; Log10 Concentration −7.0): 98%
- Percent Growth ([11]; Log10 Concentration −8.0): 96%
- TGI [12]: 2.79E−6
- GI50 ([12]; Homo sapiens): 1.33 µM
- CC50 [12, 17]: 5.87 µM
- Percent Growth ([12]; Log10 Concentration −4.0): −100%
- Percent Growth ([12]; Log10 Concentration −5.0): −86%
- Percent Growth ([12]; Log10 Concentration −6.0): 69%
- Percent Growth ([12]; Log10 Concentration −7.0): 62%
- Percent Growth ([12]; Log10 Concentration −8.0): 75%
- TGI [13]: 2.98E−6
- GI50 ([13]; Homo sapiens): 1.56 µM
- CC50 [13, 17]: 5.71 µM
- Percent Growth ([13]; Log10 Concentration −4.0): −89%
- Percent Growth ([13]; Log10 Concentration −5.0): −93%
- Percent Growth ([13]; Log10 Concentration −6.0): 84%
- Percent Growth ([13]; Log10 Concentration −7.0): 83%
- Percent Growth ([13]; Log10 Concentration −8.0): 90%
- TGI [14]: 2.21E−6
- GI50 ([14]; Homo sapiens): 0.582 µM
- CC50 [14, 17]: 6.09 µM
- Percent Growth ([14]; Log10 Concentration −4.0): −82%
- Percent Growth ([14]; Log10 Concentration −5.0): −75%
- Percent Growth ([14]; Log10 Concentration −6.0): 39%
- Percent Growth ([14]; Log10 Concentration −7.0): 85%
- Percent Growth ([14]; Log10 Concentration −8.0): 84%
- TGI [15]: 3.13E−6
- GI50 ([15]; Homo sapiens): 1.67 µM
- CC50 [15, 17]: 5.89 µM
- Percent Growth ([15]; Log10 Concentration −4.0): −92%
- Percent Growth ([15]; Log10 Concentration −5.0): −92%
- Percent Growth ([15]; Log10 Concentration −6.0): 91%
- Percent Growth ([15]; Log10 Concentration −7.0): 87%
- Percent Growth ([15]; Log10 Concentration −8.0): 85%
- In vitro potency against the viability of PC-3 cells [16]: greater than or similar to that of OSU-A9; also recorded: greater potency than OSU-A9 and OSU-A9F
